Key:
Assay in all cases: relative viability (nuclei count vs DMSO), 5 days (fraction); higher = more cells survive
[1] = compound: Cn1cc(-c2cnc3ccc4ccc(CS(=O)(=O)NCc5ccccn5)cc4c(=O)c3c2)cn1 [MK-8033] + COc1cc2c(Oc3ccc(NC(=O)C4(C(=O)Nc5ccc(F)cc5)CC4)cc3F)ccnc2cc1OCCCN1CCOCC1 [Foretinib] (partner 0.25 µM)
In short: (§1)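 Nuclei were stained with Hoechst during a one-step fixation (final 0.05% Triton X-100, 1% formaldehyde, 1 ug/ml Hoechst) carried out 5 days after dosing, then counted on 4× images. The cells, lung cancer lines in 1536-well plates, had been dosed by pin tool the day after seeding with one drug alone or a fixed anchor-drug dose plus five library-drug doses (not always all listed) in √10 steps. Relative viability is the nuclei count in treated wells divided by that in vehicle wells, and each value is the median of duplicate plates.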

[2] = compound: CCc1c2c(nc3ccc(OC(=O)N4CCC(N5CCCCC5)CC4)cc13)-c1cc3c(c(=O)n1C2)COC(=O)[C@]3(O)CC [Irinotecan] + Nc1ncn([C@H]2C[C@H](O)[C@@H](CO)O2)c(=O)n1 [Decitabine] (partner 2 µM)
In short: as §1

[3] = compound: CC[C@@H](C)CNCC(=O)N1CCC2=C([C@@H]1COC3=CC=CC(=C3)C)C=CS2 [RU-SKI 43] + COc1cccc2cc(-c3nc([C@H]4CC[C@H](C(=O)O)CC4)n4ncnc(N)c34)[nH]c12 [OSI-027] (partner 0.5 µM)
In short: as §1

[4] = compound: CC[C@@H](C)CNCC(=O)N1CCC2=C([C@@H]1COC3=CC=CC(=C3)C)C=CS2 [RU-SKI 43] + Nc1ncn([C@H]2C[C@H](O)[C@@H](CO)O2)c(=O)n1 [Decitabine] (partner 2 µM)
In short: as §1

Cell Line | relative viability ([1]; first compound 0.02 µM) | relative viability ([1]; first compound 0.06325 µM) | relative viability ([1]; first compound 0.2 µM) | relative viability ([1]; first compound 0.6325 µM) | relative viability ([1]; first compound 2 µM) | relative viability ([2]; first compound 0.6325 µM) | relative viability ([2]; first compound 2 µM) | relative viability ([2]; first compound 6.325 µM) | relative viability ([2]; first compound 20 µM) | relative viability ([3]; first compound 0.1 µM) | relative viability ([3]; first compound 0.3162 µM) | relative viability ([3]; first compound 1 µM) | relative viability ([3]; first compound 3.162 µM) | relative viability ([3]; first compound 10 µM) | relative viability ([4]; first compound 0.1 µM) | relative viability ([4]; first compound 0.3162 µM) | relative viability ([4]; first compound 1 µM) | relative viability ([4]; first compound 3.162 µM) | relative viability ([4]; first compound 10 µM)
201T | 1.06 | 1.05 | 1.13 | 1.19 | 1.1 | 0.714 | 0.615 | 0.295 | 0.298 | 0.834 | 0.709 | 1.06 | 0.69 | 0.458 | 0.838 | 0.824 | 0.854 | 0.856 | 0.831
A549 | 0.962 | 0.853 | 0.892 | 0.985 | 0.945 | – | 0.26 | 0.197 | 0.0737 | – | – | – | – | – | 0.256 | 0.263 | 0.25 | 0.307 | 0.234
A-427 | 1.04 | 1.04 | 0.903 | 1.11 | 1 | 0.566 | 0.573 | 0.347 | 0.198 | 0.471 | 0.345 | 0.546 | 0.507 | 0.43 | 0.555 | 0.477 | 0.568 | 0.551 | 0.538
ABC-1 | 1.03 | 0.97 | 0.906 | 0.985 | 1.11 | – | 0.851 | 0.515 | 0.475 | 0.541 | 0.385 | 0.554 | 0.52 | 0.473 | 1.01 | 1.14 | 1.2 | 1.07 | 1.17
BEN | 0.642 | 0.541 | 0.527 | 0.606 | 0.646 | 0.503 | 0.793 | 0.493 | 0.504 | 0.31 | 0.292 | 0.306 | 0.302 | 0.33 | 0.806 | 0.692 | 0.812 | 0.729 | 0.78
CAL-12T | 1.05 | 1.14 | 1.03 | 1.09 | 1.11 | – | – | – | – | 0.612 | 0.447 | 0.721 | 0.911 | 0.543 | – | – | – | – | –
COR-L23 | 0.934 | 0.997 | 0.986 | 1.04 | 0.993 | 0.314 | 0.336 | 0.192 | 0.104 | 0.718 | 0.99 | 0.865 | 0.881 | 0.614 | 0.428 | 0.369 | 0.448 | 0.514 | 0.433
COR-L 105 | 1.35 | 0.976 | 0.992 | 1.05 | 0.907 | 0.605 | 0.586 | 0.555 | 0.364 | 0.672 | 0.817 | 0.708 | 0.677 | 0.665 | 0.625 | 0.674 | 0.703 | 0.629 | 0.625
Calu-6 | 0.833 | 0.815 | 0.874 | 0.914 | 0.81 | – | – | – | – | – | – | – | – | – | – | – | – | – | –
ChaGo-K-1 | 0.891 | 0.834 | 1.05 | 0.967 | 0.628 | 0.344 | 0.251 | 0.233 | 0.239 | 0.658 | 0.632 | 0.646 | 0.579 | 0.744 | 0.543 | 0.559 | 0.518 | 0.551 | 0.501
EBC-1 | 0.103 | 0.0762 | 0.0977 | 0.126 | 0.0876 | – | – | – | – | – | – | – | – | – | – | – | – | – | –
EKVX | 0.849 | 0.702 | 0.79 | 0.48 | 0.968 | – | 0.27 | 0.262 | 0.229 | 0.412 | 0.67 | 0.725 | 0.813 | 0.466 | 0.303 | 0.254 | 0.146 | 0.342 | 0.365
EMC-BAC-2 | 0.899 | 0.942 | 0.936 | 1.05 | 0.971 | 0.933 | 0.719 | 0.432 | 0.277 | 0.336 | 0.32 | 0.365 | 0.378 | 0.361 | 0.984 | 0.965 | 1.02 | 0.997 | 1.03
EPLC-272H | 0.608 | 0.537 | 0.61 | 0.605 | 0.507 | – | 0.33 | 0.223 | 0.151 | 0.32 | 0.222 | 0.278 | 0.326 | 0.282 | 0.358 | 0.369 | 0.324 | 0.365 | 0.353
H3255 | 0.848 | 0.619 | 0.831 | 0.596 | 0.757 | – | 0.456 | 0.266 | 0.225 | 0.543 | 0.598 | 0.582 | 0.607 | 0.584 | 0.564 | 0.697 | 0.683 | 0.619 | 0.579
HARA | 0.772 | 0.781 | 0.884 | 0.548 | 0.997 | 0.481 | 0.318 | 0.284 | 0.283 | 0.558 | 0.492 | 0.578 | 0.594 | 0.295 | 0.497 | 0.682 | 0.566 | 0.46 | 0.47
HCC-15 | 0.977 | 0.919 | 0.994 | 1.04 | 1.02 | 0.363 | 0.45 | 0.381 | 0.14 | 0.733 | 0.805 | 0.75 | 0.803 | 0.625 | 0.545 | 0.688 | 0.732 | 0.606 | 0.587
HCC-44 | – | – | – | – | – | 0.87 | 0.913 | 0.677 | 0.512 | 0.511 | – | 0.777 | 0.479 | 0.611 | 0.98 | 0.911 | 0.922 | 0.977 | 0.953
HCC-78 | 0.444 | – | 0.548 | 0.575 | 0.55 | 0.607 | 0.479 | 0.335 | 0.328 | 0.392 | 0.392 | 0.406 | 0.386 | 0.419 | 0.676 | 0.602 | 0.781 | 0.667 | 0.639

From the supplement of paper PMC10307832
